Data published in patent US20100029654A1, “CARDIOVASCULAR COMPOSITIONS AND USE OF THE SAME FOR THE TREATMENT OF ALZHEIMER'S DISEASE” (MOUNT SINAI SCHOOL OF MEDICINE, priority 2006, published 2010).
Structures can show the parent of a compound that is named as a salt. Where two headings read alike, the source gives them in different places.

Columns and labels:
Aβ1-40 = Aβ1-40 content in conditioned medium of primary cortico-hippocampal neuron cultures from Tg2576 mice (ELISA; primary and secondary dose-response screening); assay type: cell-based, mouse; conditions: for activity at 100 µM / Ab1-40 (% of ctl): drug 100 μM; for activity at 100 µM: read-out: Ab1-40 (% of ctl); for EC50: read-out: EC50 (molar) Aβ1-40; for reduced Aβ1-40: <85% of ctl
Procedure, shortened: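 Primary cortico-hippocampal neurons from embryonic Tg2576 mice were plated at 1.0×10^5 cells per well on poly-D-lysine-coated 96-well plates in Neurobasal with 2% B27, 0.5 mM L-glutamine and 1% penicillin-streptomycin. Cultures received drug in 1% DMSO, and Aβ1-40 in the conditioned medium was measured by BioSource ELISA 24 hours after treatment, relative to vehicle controls.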

Aβ1-42 [1] = experiment: Aβ1-42 content in conditioned medium of primary cortico-hippocampal neuron cultures from Tg2576 mice (ELISA; primary and secondary dose-response screening); assay type: cell-based, mouse; conditions: for activity at 100 µM: Mus musculus, Neuron, 24 h, read-out: Ab1-42 (% of ctl); for activity at 100 µM / Ab1-42 (% of ctl): drug 100 μM; for reducing Aβ1-42: <85% of ctl
Procedure, shortened: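 This screen tested cardiovascular drugs for Aβ-lowering in Tg2576 embryonic cortico-hippocampal neuron cultures plated at 1.0×10^5 cells per well in poly-D-lysine-coated 96-well plates with Neurobasal/B27 medium. Drugs at 100 μM were added directly to the medium in duplicate, with 1% DMSO alone as the control. Conditioned medium was then collected, and its Aβ1-42 level was quantified with BioSource ELISA kits.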

Aβ1-42 [2] = experiment: as above; assay type: cell-based, mouse; conditions: for EC50 / activity at 100 µM: Mus musculus, 24 h; for EC50: Neuron, read-out: EC50 (molar) Aβ1-42; for activity at 100 µM: primary screening, drug 100 μM, Tg2576 neuron cultures, table sorted by Aβ1-42, read-out: Ab1-42 (% of ctl)
[3] = tested on: primary cortico-hippocampal neuron cultures; experiment: MTT in primary screening
[4] = tested on: primary cortico-hippocampal neuron cultures; experiment: lactate dehydrogenase (LDH) activity assay in parallel neuron cultures; conditions: for LDH at E-5M % of change: drug at E-5M
Protocol: For in vitro treatments drugs available from “The Spectrum Collection” in stocks of 10 mM in DMSO were applied directly to cultures to the desired concentrations (final 1% DMSO); control primary neuron cultures from Tg2576 embryos were treated with vehicle resulting in a final 1% DMSO.
Cell viability was assessed using a commercial available LDH assay kit according to the manufacture's instruction (Promega).

[5] = Mus musculus, Neuron, 24 h, Primary Screening, table sorted by Aβ1-40
[6] = Mus musculus, Neuron, 24 h, primary screening, Tg2576 neuron cultures, table sorted by Aβ1-42
[7] = Mus musculus, Neuron, secondary dose-response screening 0.01-100 μM, 24 hours
[8] = Primary Screening, table sorted by Aβ1-40
[9] = primary screening, Tg2576 neuron cultures, table sorted by Aβ1-42
[10] = conditioned medium of primary cortico-hippocampal neuron cultures from Tg2576 embryos, 24 hours after treatment, relative to vehicle (1% DMSO) control
[11] = secondary dose-response screening 0.01-100 μM, 24 hours
[12] = primary screening, table sorted by Aβ1-42
[13] = Mus musculus, 24 h, primary screening, Tg2576 neuron cultures, table sorted by Aβ1-42

Structure (SMILES)	EC50 (Aβ1-40; [7])	EC50 (Aβ1-42 [2]; [11])	MTT (% of ctl) [3, 8]	MTT (% of ctl) [3, 12]	LDH (% of ctl) [4, 8]	LDH at E-5M % of change [4]	LDH (% of ctl) [4, 12]	activity at 100 µM (Aβ1-40; [5])	activity at 100 µM (Aβ1-40; [6])	activity at 100 µM (Aβ1-42 [1]; [8])	activity at 100 µM (Aβ1-42 [1]; [9])	reduced Aβ1-40 (Aβ1-40; primary screening)	reducing Aβ1-42 (Aβ1-42 [1]; primary screening)	Ab1-40 (% of ctl) (Aβ1-40; [8])	Ab1-42 (% of ctl) (Aβ1-42 [1]; [8])	further results
COc1cc2c3cc1Oc1c(OC)c(OC)cc4c1[C@@H](Cc1cccc(c1)Oc1ccc(c(O)c1)C[C@@H]3N(C)CC2)N(C)CC4 [Berbamine Hydrochloride]			97.6 % of ctl	97.6 % of ctl	129.1 % of ctl		129.1 % of ctl							119.1 % of ctl	150.6 % of ctl	activity at 100 µM (Aβ1-40; [13]): 119%; activity at 100 µM (Aβ1-42 [2]): 151%
COC(=O)C1=C(C)NC(C)=C(C(=O)OC)C1c1ccccc1[N+](=O)[O-] [Nifedipine]		0.0736 µM	98.7 % of ctl	98.7 % of ctl	76.1 % of ctl	12.0%	76.1 % of ctl	73.4%	73.4%	90.6%	90.6%					EC50 (Aβ1-42 [2]; [10]): 0.0736 µM
C[N+](C)(C)CCCCCC[N+](C)(C)C [Hexamethonium Bromide]			92.1 % of ctl	92.1 % of ctl	99.7 % of ctl		99.7 % of ctl					reduced Aβ1-40	useful in reducing Aβ1-42	84.8 % of ctl	72.6 % of ctl	activity at 100 µM (Aβ1-40; [13]): 84.8%; activity at 100 µM (Aβ1-42 [2]): 72.6%
CO[C@H]1[C@H](O)[C@H](O[C@H]2CC[C@@]3(C)[C@H](CC[C@@H]4[C@@H]3CC[C@]3(C)[C@@H](C5=CC(=O)OC5)CC[C@]43O)C2)O[C@@H](C)[C@@H]1O [Neriifolin]			101.2 % of ctl	101.2 % of ctl	110.8 % of ctl		110.8 % of ctl					reduced Aβ1-40		79.7 % of ctl	90.3 % of ctl	activity at 100 µM (Aβ1-40; [13]): 79.7%; activity at 100 µM (Aβ1-42 [2]): 90.3%
CC[C@@H](C)C(=O)O[C@H]1[C@H](O)[C@H]2[C@@H](CN3C[C@@H](C)CC[C@H]3[C@@]2(C)O)[C@@H]2C[C@]34O[C@]5(O)[C@@H](OC(=O)[C@](C)(O)[C@@H](C)O)CC[C@@]3(C)[C@@H]5[C@@H](OC(C)=O)[C@@H](OC(C)=O)[C@H]4[C@@]21O (stereo in doubt) [Protoveratrine B]			58.5 % of ctl	58.5 % of ctl	729.8 % of ctl	−2.5%	729.8 % of ctl					reduced Aβ1-40		61.8 % of ctl	93.3 % of ctl	Ab1-40 (% of ctl) (Aβ1-40; [9]): 61.8 % of ctl; EC50 (Aβ1-40; [11]): 6.73 µM; Ab1-42 (% of ctl) (Aβ1-42 [1]; [9]): 93.3 % of ctl; EC50 (molar) Aβ1-42 (Aβ1-42 [2]; [11]): no fit
Cc1cc(C(C)(C)C)cc(C)c1CC1=NCCN1 [Xylometazoline Hydrochloride]			88.2 % of ctl	88.2 % of ctl	110.8 % of ctl		110.8 % of ctl					reduced Aβ1-40	useful in reducing Aβ1-42	66.6 % of ctl	71.8 % of ctl	activity at 100 µM (Aβ1-40; [13]): 66.6%; activity at 100 µM (Aβ1-42 [2]): 71.8%

Continued, in another order:

EC50 (Aβ1-40; [7])	EC50 (Aβ1-42 [2]; [11])	MTT (% of ctl) [3, 8]	MTT (% of ctl) [3, 12]	LDH (% of ctl) [4, 8]	LDH at E-5M % of change [4]	LDH (% of ctl) [4, 12]	Structure (SMILES)	activity at 100 µM (Aβ1-40; [5])	activity at 100 µM (Aβ1-40; [6])	activity at 100 µM (Aβ1-42 [1]; [8])	activity at 100 µM (Aβ1-42 [1]; [9])	reduced Aβ1-40 (Aβ1-40; primary screening)	reducing Aβ1-42 (Aβ1-42 [1]; primary screening)	Ab1-40 (% of ctl) (Aβ1-40; [8])	Ab1-42 (% of ctl) (Aβ1-42 [1]; [8])	further results
822 µM	1.6 µM	100.8 % of ctl	100.8 % of ctl	94.3 % of ctl	5.0%	94.3 % of ctl	CCOC(=O)C1=C(C)NC(C)=C(C(=O)OC)C1c1cccc([N+](=O)[O-])c1 (centres unmarked) [Nitrendipine]	33%	33%	64%	64%					EC50 (Aβ1-42 [2]; [10]): 1.6 µM
56.6 µM	902 µM	87.2 % of ctl	87.2 % of ctl	157.8 % of ctl	−3.4%	157.8 % of ctl	COC(=O)[C@H]1[C@H]2C[C@@H]3c4[nH]c5cc(OC)ccc5c4CCN3C[C@H]2C[C@@H](OC(=O)c2cc(OC)c(OC)c(OC)c2)[C@@H]1OC [Reserpine]	24.7%	24.7%	38.7%	38.7%	reduced Aβ1-40	useful in reducing Aβ1-42			
14.5 µM	21.3 µM	77.7 % of ctl	77.7 % of ctl	396.1 % of ctl	−3.4%	396.1 % of ctl	CCCCCCCCNC(C)C(O)c1ccc(SC(C)C)cc1 (centres unmarked) [Suloctidil]	1.8%	1.8%	4.6%	4.6%	reduced Aβ1-40	useful in reducing Aβ1-42			
	7.08e-06 µM	82.7 % of ctl	82.7 % of ctl	107.8 % of ctl	6.0%	107.8 % of ctl	COC(=O)[C@@H]1[C@H]2C[C@H]3c4[nH]c5ccccc5c4CCN3C[C@@H]2CC[C@@H]1O [Yohimbine Hydrochloride]	66.2%	66.2%	68.9%	68.9%	reduced Aβ1-40	useful in reducing Aβ1-42			EC50 (molar) Aβ1-40 (Aβ1-40; [11]): no fit
	53.3 µM	71.2 % of ctl	71.2 % of ctl	125.8 % of ctl	−3.7%	125.8 % of ctl	CC(C)N(CCC(C(N)=O)(c1ccccc1)c1ccccn1)C(C)C (centres unmarked) [Disopyramide Phosphate]	83.5%	83.5%	66.3%	66.3%	reduced Aβ1-40	useful in reducing Aβ1-42			EC50 (Aβ1-40; Mus musculus, Neuron, 24 h): 0.000778 µM
	28.1 µM	115.6 % of ctl	115.6 % of ctl	100.4 % of ctl	−4.0%	100.4 % of ctl	COCCOC(=O)C1=C(C)NC(C)=C(C(=O)OC(C)C)C1c1cccc([N+](=O)[O-])c1 (centres unmarked) [Nimodipine]	79.1%	79.1%	90.9%	90.9%					EC50 (Aβ1-42 [2]; [10]): 28.1 µM
21 µM	22.5 µM	109.9 % of ctl	109.9 % of ctl	101.5 % of ctl	10.0%	101.5 % of ctl	C=C(CC)C(=O)c1ccc(OCC(=O)O)c(Cl)c1Cl [Ethacrynic Acid]	4.4%	4.4%	1.8%	1.8%	reduced Aβ1-40	useful in reducing Aβ1-42			
12.5 µM	42 µM	7.7 % of ctl	7.7 % of ctl	1881.4 % of ctl	−3.0%	1881.4 % of ctl	CC(NCCC(c1ccccc1)c1ccccc1)c1ccccc1 (centres unmarked) [Fendiline Hydrochloride]	7.9%	7.9%	26.2%	26.2%	reduced Aβ1-40	useful in reducing Aβ1-42			
